ChEMBL document CHEMBL1139986, “Synthesis and biodistribution of 8-iodo-11-(4-methylpiperazino)-5H-dibenzo[b,e][1,4]-diazepine: Iozapine” (Bioorg Med Chem Lett, 2007)

Key:
Conditions in all cases: in vivo
[1] = species on record: Oryctolagus cuniculus; experiment: Biodistribution in rabbit whole body at 20 MBq after 1.5 hrs; type: ADME, organism-based
[2] = species on record: Oryctolagus cuniculus; experiment: Biodistribution in rabbit whole body at 20 MBq after 20.0 hrs; type: ADME, organism-based
[3] = system: Thyroid gland; experiment: Biodistribution in rabbit thyroid at 20 MBq after 0.5 hrs; type: ADME, organism-based, Oryctolagus cuniculus
[4] = system: Brain; experiment: Biodistribution in rabbit brain at 20 MBq after 3.0 hrs; type: ADME, organism-based, Oryctolagus cuniculus
[5] = system: Brain; experiment: Biodistribution in rabbit brain at 20 MBq after 1.5 hrs; type: ADME, organism-based, Oryctolagus cuniculus
[6] = species on record: Oryctolagus cuniculus; experiment: Biodistribution in rabbit whole body at 20 MBq after 3.0 hrs; type: ADME, organism-based
[7] = system: Lung; experiment: Biodistribution in rabbit lung at 20 MBq after 2.5 hrs; type: ADME, organism-based, Oryctolagus cuniculus
[8] = system: Brain; experiment: Biodistribution in rabbit brain at 20 MBq after 20.0 hrs; type: ADME, organism-based, Oryctolagus cuniculus
[9] = system: Lung; experiment: Biodistribution in rabbit lung at 20 MBq; type: ADME, organism-based, Oryctolagus cuniculus
[10] = system: Lung; experiment: Biodistribution in rabbit lung at 20 MBq after 20.0 hrs; type: ADME, organism-based, Oryctolagus cuniculus
[11] = system: Thyroid gland; experiment: Biodistribution in rabbit thyroid at 20 MBq after 2.5 hrs; type: ADME, organism-based, Oryctolagus cuniculus
[12] = system: Thyroid gland; experiment: Biodistribution in rabbit thyroid at 20 MBq after 20.0 hrs; type: ADME, organism-based, Oryctolagus cuniculus
[13] = system: Lung; experiment: Biodistribution in rabbit lung at 20 MBq after 1.5 hrs; type: ADME, organism-based, Oryctolagus cuniculus
[14] = system: Thyroid gland; experiment: Biodistribution in rabbit thyroid at 20 MBq after 2.0 hrs; type: ADME, organism-based, Oryctolagus cuniculus
[15] = species on record: Oryctolagus cuniculus; experiment: Biodistribution in rabbit whole body at 20 MBq after 1 hr; type: ADME, organism-based
[16] = system: Thyroid gland; experiment: Biodistribution in rabbit thyroid at 20 MBq; type: ADME, organism-based, Oryctolagus cuniculus
[17] = system: Brain; experiment: Biodistribution in rabbit brain at 20 MBq after 2.5 hrs; type: ADME, organism-based, Oryctolagus cuniculus
[18] = system: Brain; experiment: Biodistribution in rabbit brain at 20 MBq after 2.0 hrs; type: ADME, organism-based, Oryctolagus cuniculus
[19] = system: Brain; experiment: Biodistribution in rabbit brain at 20 MBq after 0.5 hrs; type: ADME, organism-based, Oryctolagus cuniculus
[20] = system: Thyroid gland; experiment: Biodistribution in rabbit thyroid at 20 MBq after 1 hr; type: ADME, organism-based, Oryctolagus cuniculus
[21] = species on record: Oryctolagus cuniculus; experiment: Biodistribution in rabbit whole body at 20 MBq after 2.0 hrs; type: ADME, organism-based
[22] = system: Brain; experiment: Biodistribution in rabbit brain at 20 MBq after 1 hr; type: ADME, organism-based, Oryctolagus cuniculus
[23] = species on record: Oryctolagus cuniculus; experiment: Biodistribution in rabbit whole body at 20 MBq after 0.5 hrs; type: ADME, organism-based
[24] = system: Lung; experiment: Biodistribution in rabbit lung at 20 MBq after 1 hr; type: ADME, organism-based, Oryctolagus cuniculus
[25] = species on record: Oryctolagus cuniculus; experiment: Biodistribution in rabbit whole body at 20 MBq; type: ADME, organism-based
[26] = system: Lung; experiment: Biodistribution in rabbit lung at 20 MBq after 0.5 hrs; type: ADME, organism-based, Oryctolagus cuniculus
[27] = system: Thyroid gland; experiment: Biodistribution in rabbit thyroid at 20 MBq after 3.0 hrs; type: ADME, organism-based, Oryctolagus cuniculus
[28] = system: Lung; experiment: Biodistribution in rabbit lung at 20 MBq after 2.0 hrs; type: ADME, organism-based, Oryctolagus cuniculus
[29] = system: Brain; experiment: Biodistribution in rabbit brain at 20 MBq; type: ADME, organism-based, Oryctolagus cuniculus
[30] = system: Thyroid gland; experiment: Biodistribution in rabbit thyroid at 20 MBq after 1.5 hrs; type: ADME, organism-based, Oryctolagus cuniculus
[31] = species on record: Oryctolagus cuniculus; experiment: Biodistribution in rabbit whole body at 20 MBq after 2.5 hrs; type: ADME, organism-based
[32] = system: Lung; experiment: Biodistribution in rabbit lung at 20 MBq after 3.0 hrs; type: ADME, organism-based, Oryctolagus cuniculus

Drug uptake [1]: 97.7 %ID
Drug uptake [2]: 54.6 %ID
Drug uptake [3]: 1.4 %ID
Drug uptake [4]: 1.2 %ID
Drug uptake [5]: 1.6 %ID
Drug uptake [6]: 96.9 %ID
Drug uptake [7]: 6 %ID
Drug uptake [8]: 0.7 %ID
Drug uptake [9]: 14.7 %ID
Drug uptake [10]: 2.3 %ID
Drug uptake [11]: 1.2 %ID
Drug uptake [12]: 1.9 %ID
Drug uptake [13]: 8.1 %ID
Drug uptake [14]: 1.4 %ID
Drug uptake [15]: 95.8 %ID
Drug uptake [16]: 1.5 %ID
Drug uptake [17]: 1.5 %ID
Drug uptake [18]: 1.5 %ID
Drug uptake [19]: 2.2 %ID
Drug uptake [20]: 1.4 %ID
Drug uptake [21]: 97.4 %ID
Drug uptake [22]: 1.8 %ID
Drug uptake [23]: 98.7 %ID
Drug uptake [24]: 10.4 %ID
Drug uptake [25]: 100 %ID
Drug uptake [26]: 10.7 %ID
Drug uptake [27]: 1.4 %ID
Drug uptake [28]: 7.6 %ID
Drug uptake [29]: 2.2 %ID
Drug uptake [30]: 1.3 %ID
Drug uptake [31]: 99.4 %ID
Drug uptake [32]: 6.4 %ID
SMILES: CN1CCN(C2=Nc3cc([123I])ccc3Nc3ccccc32)CC1 [[123I]I-OZAPINE]
